According to ChEMBL document CHEMBL1157076, “Tetracenoquinocin and 5-iminoaranciamycin from a sponge-derived Streptomyces sp. Sp080513GE-26” (J Nat Prod, 2010):

Columns and labels:
HeLa = assay: Cytotoxicity against human HeLa cells after 48 hrs by WST8 assay; assay type: functional, cell-based
HL-60 = assay: Cytotoxicity against human HL60 cells after 48 hrs by WST8 assay; assay type: functional, cell-based; details: HL-60, 48 h

SMILES | IC50 (HeLa) | IC50 (HL-60)
CO[C@H]1[C@H](O[C@@H]2c3c(cc4c(c3O)C(=N)c3c(O)cccc3C4=O)C(=O)[C@@](C)(O)[C@H]2OC)O[C@@H](C)[C@H](O)[C@H]1O | > 200 µM | > 200 µM
CO[C@H]1[C@H](O[C@@H]2c3c(cc4c(c3O)C(=O)c3c(O)cccc3C4=O)C(=O)[C@@](C)(O)[C@H]2OC)O[C@@H](C)[C@H](O)[C@H]1O [ARANCIAMYCIN] | 2.7 µM | 4.1 µM
CO[C@H]1[C@H](Oc2cc(C)cc3cc4c(c(O)c23)C(=O)c2c(O)cccc2C4=O)O[C@@H](C)[C@H](O)[C@H]1O [TETRACENOQUINOCIN] | 120 µM | 210 µM
